Measured values as given in patent US12030865B2, “Pesticidal mixtures comprising indazoles” (FMC Corporation, priority 2018, dated 2024).

Columns and labels:
Assay type in all cases: in vivo
[1] = system: green peach aphid (Myzus persicae (Sulzer)); assay: Test A: control of green peach aphid on pre-infested radish plant, spray; conditions: 144 h, visually assessed after 6 days; for mortality at 50 ppm: sprayed at 50 ppm; for mortality at 250 ppm: sprayed at 250 ppm
Description: (§1) Test compounds were formulated using a solution containing 10% acetone, 90% water and 300 ppm X-77® Spreader Lo-Foam Formula non-ionic surfactant containing alkylarylpolyoxyethylene, free fatty acids, glycols and isopropanol (Loveland Industries, Inc. Greeley, Colorado, USA). The formulated compounds were applied in 1 mL of liquid through a SUJ2 atomizer nozzle with 1/8 JJ custom body (Spraying Systems Co. Wheaton, Illinois, USA) positioned 1.27 cm (0.5 inches) above the top of each test unit. Test compounds were sprayed at the rates indicated, and each test was replicated three times.
For evaluating control of green peach aphid (Myzus persicae (Sulzer)) through contact and/or systemic means, the test unit consisted of a small open container with a 12-15-day-old radish plant inside. This was pre-infested by placing on a leaf of the test plant 30-40 aphids on a piece of leaf excised from a culture plant (cut-leaf method). The aphids moved onto the test plant as the leaf piece desiccated. After pre-infestation, the soil of the test unit was covered with a layer of sand.
Test compounds were formulated and sprayed at 250 and/or 50 ppm. After spraying of the formulated test compound, each test unit was allowed to dry for 1 hour and then a black, screened cap was placed on top. The test units were held for 6 days in a growth chamber at 19-21° C. and 50-70% relative humidity. Each test unit was then visually assessed for insect mortality.

[2] = system: cotton melon aphid (Aphis gossypii (Glover)); assay: Test B: control of cotton melon aphid on pre-infested cotton plant, spray; conditions: 144 h, sprayed at 50 ppm, visually assessed after 6 days
Description: as §1
For evaluating control of cotton melon aphid (Aphis gossypii (Glover)) through contact and/or systemic means, the test unit consisted of a small open container with a 6-7-day-old cotton plant inside. This was pre-infested with 30-40 insects on a piece of leaf according to the cut-leaf method, and the soil of the test unit was covered with a layer of sand.
Test compounds were formulated and sprayed at 250 and/or 50 ppm. After spraying, the test units were maintained in a growth chamber for 6 days at 19° C. and 70% relative humidity. Each test unit was then visually assessed for insect mortality.

[3] = system: sweetpotato whitefly (Bemisia tabaci (Gennadius)); assay: Test C: control of sweetpotato whitefly on egg-infested cotton plant, spray; conditions: 312 h, cotton plant with eggs, visually assessed after 13 days; for mortality at 250 ppm: sprayed at 250 ppm
Description: as §1
For evaluating control of the sweetpotato whitefly (Bemisia tabaci (Gennadius)) through contact and/or systemic means, the test unit consisted of a small open container with a 12-14-day-old cotton plant inside. Prior to the spray application, both cotyledons were removed from the plant, leaving one true leaf for the assay. Adult whiteflies were allowed to lay eggs on the plant and then were removed from the test unit. Cotton plants infested with at least 15 eggs were submitted to the test for spraying.
Test compounds were formulated and sprayed at 250 and/or 50 ppm. After spraying, the test units were allowed to dry for 1 hour. The cylinders were then removed, and the units were taken to a growth chamber and held for 13 days at 28° C. and 50-70% relative humidity. Each test unit was then visually assessed for insect mortality.

[4] = system: Western Flower Thrips (Frankliniellla occidentalis (Pergande)); assay: Test D: control of Western Flower Thrips on Soleil bean plant, spray; conditions: adult thrips, held 6 days
Description: as §1
For evaluating control of the Western Flower Thrips (Frankliniellla occidentalis (Pergande)) through contact and/or systemic means, the test unit consisted of a small open container with a 5-7-day-old Soleil bean plant inside.
Test compounds were formulated and sprayed at 250 and/or 50 ppm. After spraying, the test units were allowed to dry for 1 hour, and then 22-27 adult thrips were added to each unit. A black, screened cap was placed on top, and the test units were held for 6 days at 25° C. and 45-55% relative humidity.

| Structure (SMILES) | mortality at 50 ppm [1] [%] | mortality at 250 ppm [1] [%] | mortality at 50 ppm [2] [%] | mortality at 50 ppm ([3]; sprayed at 50 ppm) [%] | mortality at 250 ppm [3] [%] | control efficacy (30% or less plant damage and/or 100% mortality) ([4]; sprayed at 50 ppm) | control efficacy (30% or less plant damage and/or 100% mortality) ([4]; sprayed at 250 ppm) |
| --- | --- | --- | --- | --- | --- | --- | --- |
| O=C(NC1(C(F)F)CC1)c1cccc2nn(-c3cccnc3)cc12 [Compound 1, N-[1-(difluoromethyl)cyclopropyl]-2-(3-pyridinyl)-2H-indazole-4-carboxamide] | ≥ 80 | ≥ 80 | ≥ 80 | ≥ 50 | ≥ 50 | very good to excellent levels of control efficacy | very good to excellent levels of control efficacy |
| CC(C)(CS(C)(=O)=O)NC(=O)c1ccc(F)c2nn(-c3cccnc3)cc12 [Compound 2c, N-[1,1-dimethyl-2-(methylsulfonyl)ethyl]-7-fluoro-2-(3-pyridinyl)-2H indazole-4-carboxamide] | ≥ 80 |  | ≥ 80 |  |  |  |  |
| CSCC(C)(C)NC(=O)c1ccc(F)c2nn(-c3cccnc3)cc12 [Compound 2a, N-[1,1-dimethyl-2-(methylthio)ethyl]-7-fluoro-2-(3-pyridinyl)-2H-indazole-4-carboxamide] | ≥ 80 | ≥ 80 | ≥ 80 |  |  | very good to excellent levels of control efficacy | very good to excellent levels of control efficacy |
| C[S+]([O-])CC(C)(C)NC(=O)c1ccc(F)c2nn(-c3cccnc3)cc12 (stereo not shown) [Compound 2b, N-[1,1-dimethyl-2-(methylsulfinyl)ethyl]-7-fluoro-2-(3-pyridinyl)-2H indazole-4-carboxamide] | ≥ 80 |  | ≥ 80 |  | ≥ 50 | very good to excellent levels of control efficacy | very good to excellent levels of control efficacy |
